{
  "source": "EPA's ToxValDB 9.5 (doi:10.2903/j.efsa.2010.1876)",
  "key": {"Anas platyrhynchos": {"test_system": "Anas platyrhynchos", "conditions": "reproductive"}, "Apis mellifera": {"test_system": "Apis mellifera", "conditions": "acute; duration: 48 hours; oral; unspecified; mortality"}, "Colinus virginianus": {"test_system": "Colinus virginianus", "conditions": "acute; oral; diet; mortality"}, "Coturnix japonica": {"test_system": "Coturnix japonica", "conditions": "acute; oral; mortality"}, "Daphnia magna": {"test_system": "Daphnia magna", "conditions": "chronic/long-term; duration: 22 days; reproduction"}, "Lepomis macrochirus": {"test_system": "Lepomis macrochirus", "conditions": "acute; duration: 96 hours; mortality"}, "Mus musculus": {"test_system": "Mus musculus", "conditions": "acute; oral; mortality"}, "Oncorhynchus mykiss": {"test_system": "Oncorhynchus mykiss", "conditions": "chronic/long-term; duration: 28 days; growth"}, "Typhlodromus pyri": {"test_system": "Typhlodromus pyri", "test": "LR50; higher = less toxic", "conditions": "not reported; mortality"}},
  "note": "Values joined by “and” are separate entries in the source; they are usually repeats but may differ in a detail not shown here. Equal entries are not always repeated.",
  "data": [
    {"smiles": "NC(Cc1ncn[nH]1)C(=O)O", "note": "(stereo not given) [1,2,4-Triazole-3-alanine]", "values": [
      {"measurement": "NOAEL", "setting": "Rattus norvegicus; developmental, development", "result": 100, "unit": "mg/kg-day"}
    ]},
    {"smiles": "c1nc[nH]n1", "note": "[1H-1,2,4-Triazole]", "values": [
      {"measurement": "NOAEL", "setting": "Rattus norvegicus; reproduction developmental", "result": "17 mg/kg-day and 30 mg/kg-day"}
    ]},
    {"smiles": "CC(C)(C)[C@H](O)[C@H](Cc1ccc(Cl)cc1)n1cncn1", "note": "(racemic) [Paclobutrazol]", "values": [
      {"measurement": "NOEC", "setting": "Anas platyrhynchos", "result": 119, "unit": "mg/kg-day"},
      {"measurement": "LD50", "setting": "Apis mellifera", "result": "> 2", "unit": "µg/piece"},
      {"measurement": "LC50", "setting": "Colinus virginianus", "result": "> 2790", "unit": "mg/kg-day"},
      {"measurement": "LD50", "setting": "Coturnix japonica", "result": "> 2100", "unit": "mg/kg"},
      {"measurement": "NOEC", "setting": "Daphnia magna", "result": 0.32, "unit": "mg/L"},
      {"measurement": "LC50", "setting": "Lepomis macrochirus", "result": 23.6, "unit": "µg/mL"},
      {"measurement": "LD50", "setting": "Mus musculus", "result": 490, "unit": "mg/kg"},
      {"measurement": "NOEC", "setting": "Oncorhynchus mykiss", "result": 3.3, "unit": "mg/L"},
      {"measurement": "NOAEL", "setting": "Rattus norvegicus; chronic, duration: 2 years, clinical chemistry", "result": 2.2, "unit": "mg/kg-day"},
      {"measurement": "NOAEL", "setting": "Rattus norvegicus; developmental, development", "result": 10, "unit": "mg/kg-day"},
      {"measurement": "LC50", "setting": "Tagia sp.; acute, mortality", "result": "> 1000", "unit": "mg/kg"},
      {"measurement": "NOEC", "setting": "Tagia sp.; chronic/long-term, duration: 56 days", "result": 1.69, "unit": "mg/kg"},
      {"measurement": "LR50", "setting": "Typhlodromus pyri", "result": "> 1000", "unit": "g/ha"}
    ]}
  ]
}
